In PubChem BioAssay AID2060612 (Molecular Pharmacology Branch, DTP, NCI, 2025):

Tested on: 565232-114-T-J1-PDC complex spheroid viability
Test: Anticancer human tumor 565232-114-T-J1-PDC patient-derived bladder carcinoma cell line growth inhibition [CLK]
Settings: for IC50: curve of first compound; for viability, T/C: stronger effect = lower value; active = viability on the fitted dose curve at most 10% of control; inactive = the rest
In short: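 Patient-derived tumor cells grown as complex spheroids with HUVEC endothelial cells and mesenchymal stem cells, treated with drug combinations. Concentrations descend in half-log steps from near clinical Cmax, or from 10 microM if Cmax unknown.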

[1] = second compound 0.0316 µM, first compound 0.00949 µM
[2] = second compound 0.0316 µM, first compound 0.03 µM
[3] = second compound 0.0316 µM, first compound 0.0949 µM
[4] = second compound 0.0316 µM, first compound 0.3 µM
[5] = second compound 0.1 µM, first compound 0.00949 µM
[6] = second compound 0.1 µM, first compound 0.03 µM
[7] = second compound 0.1 µM, first compound 0.0949 µM
[8] = second compound 0.1 µM, first compound 0.3 µM
[9] = second compound 0.316 µM, first compound 0.00949 µM
[10] = second compound 0.316 µM, first compound 0.03 µM
[11] = second compound 0.316 µM, first compound 0.0949 µM
[12] = second compound 0.316 µM, first compound 0.3 µM
[13] = second compound 1 µM, first compound 0.00949 µM
[14] = second compound 1 µM, first compound 0.03 µM
[15] = second compound 1 µM, first compound 0.0949 µM
[16] = second compound 1 µM, first compound 0.3 µM
[17] = second compound 3.16 µM, first compound 0.00949 µM
[18] = second compound 3.16 µM, first compound 0.03 µM
[19] = second compound 3.16 µM, first compound 0.0949 µM
[20] = second compound 3.16 µM, first compound 0.3 µM
[21] = second compound 10 µM, first compound 0.00949 µM
[22] = second compound 10 µM, first compound 0.03 µM
[23] = second compound 10 µM, first compound 0.0949 µM
[24] = second compound 10 µM, first compound 0.3 µM
[25] = second compound 0.0316 µM, first compound 0.0316 µM
[26] = second compound 0.0316 µM, first compound 0.1 µM
[27] = second compound 0.0316 µM, first compound 0.316 µM
[28] = second compound 0.0316 µM, first compound 1 µM
[29] = second compound 0.0316 µM, first compound 3.16 µM
[30] = second compound 0.0316 µM, first compound 10 µM
[31] = second compound 0.1 µM, first compound 0.0316 µM
[32] = second compound 0.1 µM, first compound 0.1 µM
[33] = second compound 0.1 µM, first compound 0.316 µM
[34] = second compound 0.1 µM, first compound 1 µM
[35] = second compound 0.1 µM, first compound 3.16 µM
[36] = second compound 0.1 µM, first compound 10 µM
[37] = second compound 0.316 µM, first compound 0.0316 µM
[38] = second compound 0.316 µM, first compound 0.1 µM
[39] = second compound 0.316 µM, first compound 0.316 µM
[40] = second compound 0.316 µM, first compound 1 µM
[41] = second compound 0.316 µM, first compound 3.16 µM
[42] = second compound 0.316 µM, first compound 10 µM
[43] = second compound 1 µM, first compound 0.0316 µM
[44] = second compound 1 µM, first compound 0.1 µM
[45] = second compound 1 µM, first compound 0.316 µM
[46] = second compound 1 µM, first compound 1 µM
[47] = second compound 1 µM, first compound 3.16 µM
[48] = second compound 1 µM, first compound 10 µM
[49] = second compound 3.16 µM, first compound 0.0316 µM
[50] = second compound 3.16 µM, first compound 0.1 µM
[51] = second compound 3.16 µM, first compound 0.316 µM
[52] = second compound 3.16 µM, first compound 1 µM
[53] = second compound 3.16 µM, first compound 3.16 µM
[54] = second compound 3.16 µM, first compound 10 µM
[55] = second compound 10 µM, first compound 0.0316 µM
[56] = second compound 10 µM, first compound 0.1 µM
[57] = second compound 10 µM, first compound 0.316 µM
[58] = second compound 10 µM, first compound 1 µM
[59] = second compound 10 µM, first compound 3.16 µM
[60] = second compound 10 µM, first compound 10 µM
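Also: spheroids exposed to compounds for 7 days before readout.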
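For viability, T/C in this document: 100% = DMSO vehicle wells with luminescence normalized to vehicle control.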

C=CC(=O)Nc1cc(Nc2nccc(-c3cn(C)c4ccccc34)n2)c(OC)cc1N(C)CCN(C)C + CNC(=O)c1ccc(Nc2nc(OC3CCCC3)c3c(-c4ccc5nc(C)oc5c4)c[nH]c3n2)c(OC)c1
< 0.949 nM: IC50 (second compound 0.316 µM) | IC50 (second compound 1 µM) | IC50 (second compound 3.16 µM) | IC50 (second compound 10 µM)
105 nM: IC50 (second compound 0.1 µM)
> 300 nM: IC50 (second compound 0.0316 µM)
inactive: viability, T/C (second compound 0.0316 µM, first compound 0.000949 µM) 84.3% | viability, T/C (second compound 0.0316 µM, first compound 0.003 µM) 92.5% | viability, T/C [1] 75.5% | viability, T/C [2] 86.7% | viability, T/C [3] 87.6% | viability, T/C [4] 86.1% | viability, T/C (second compound 0.1 µM, first compound 0.000949 µM) 49.8% | viability, T/C (second compound 0.1 µM, first compound 0.003 µM) 53.3% | viability, T/C [5] 51.1% | viability, T/C [6] 49.2% | viability, T/C [7] 51.6% | viability, T/C [8] 40.5% | viability, T/C (second compound 0.316 µM, first compound 0.000949 µM) 28.5% | viability, T/C (second compound 0.316 µM, first compound 0.003 µM) 31.7% | viability, T/C [9] 28.5% | viability, T/C [10] 31.1% | viability, T/C [11] 35.7% | viability, T/C [12] 26.2% | viability, T/C (second compound 1 µM, first compound 0.000949 µM) 22.4% | viability, T/C (second compound 1 µM, first compound 0.003 µM) 27.3% | viability, T/C [13] 21.9% | viability, T/C [14] 26.4% | viability, T/C [15] 18.1% | viability, T/C [16] 22% | viability, T/C (second compound 3.16 µM, first compound 0.000949 µM) 18.5% | viability, T/C (second compound 3.16 µM, first compound 0.003 µM) 20.7% | viability, T/C [17] 17.6% | viability, T/C [18] 21.4% | viability, T/C [19] 15.2% | viability, T/C [20] 14.3% | viability, T/C (second compound 10 µM, first compound 0.000949 µM) 19.9% | viability, T/C (second compound 10 µM, first compound 0.003 µM) 18.8% | viability, T/C [21] 16.1% | viability, T/C [22] 18.2% | viability, T/C [23] 14% | viability, T/C [24] 11.7%

CC1(C)CCC(CN2CCN(c3ccc(C(=O)NS(=O)(=O)c4ccc(NCC5CCOCC5)c([N+](=O)[O-])c4)c(Oc4cnc5[nH]ccc5c4)c3)CC2)=C(c2ccc(Cl)cc2)C1 + CNC(=O)c1ccc(Nc2nc(OC3CCCC3)c3c(-c4ccc5nc(C)oc5c4)c[nH]c3n2)c(OC)c1
2340 nM: IC50 (second compound 0.1 µM)
< 31.6 nM: IC50 (second compound 0.316 µM) | IC50 (second compound 1 µM) | IC50 (second compound 3.16 µM) | IC50 (second compound 10 µM)
inactive: viability, T/C [25] 82.7% | viability, T/C [26] 93.9% | viability, T/C [27] 95.7% | viability, T/C [28] 95.2% | viability, T/C [29] 92.7% | viability, T/C [30] 44.7% | viability, T/C [31] 60.2% | viability, T/C [32] 55.1% | viability, T/C [33] 52.6% | viability, T/C [34] 53.6% | viability, T/C [35] 49.4% | viability, T/C [36] 30.5% | viability, T/C [37] 37.3% | viability, T/C [38] 38.1% | viability, T/C [39] 39.3% | viability, T/C [40] 33.5% | viability, T/C [41] 32.7% | viability, T/C [42] 23.7% | viability, T/C [43] 21.2% | viability, T/C [44] 23.3% | viability, T/C [45] 25.4% | viability, T/C [46] 26.6% | viability, T/C [47] 28.7% | viability, T/C [48] 20.6% | viability, T/C [49] 22% | viability, T/C [50] 20.8% | viability, T/C [51] 23.6% | viability, T/C [52] 20.8% | viability, T/C [53] 20.8% | viability, T/C [54] 17.1% | viability, T/C [55] 21.5% | viability, T/C [56] 19.9% | viability, T/C [57] 18.5% | viability, T/C [58] 21.1% | viability, T/C [59] 20.1% | viability, T/C [60] 16.5%
8790 nM: IC50 (second compound 0.0316 µM)

NC(=O)C(=Cn1cnc(-c2cc(C(F)(F)F)cc(C(F)(F)F)c2)n1)c1cncnc1 + CNC(=O)c1ccc(Nc2nc(OC3CCCC3)c3c(-c4ccc5nc(C)oc5c4)c[nH]c3n2)c(OC)c1
active: viability, T/C (second compound 0.0316 µM, first compound 0.949 µM) 1.65% | viability, T/C (second compound 0.0316 µM, first compound 3 µM) 0.39% | viability, T/C (second compound 0.1 µM, first compound 0.949 µM) 1% | viability, T/C (second compound 0.1 µM, first compound 3 µM) 0.65% | viability, T/C (second compound 0.316 µM, first compound 0.949 µM) 1.36% | viability, T/C (second compound 0.316 µM, first compound 3 µM) 1.61% | viability, T/C [16] 5.67% | viability, T/C (second compound 1 µM, first compound 0.949 µM) 0.48% | viability, T/C (second compound 1 µM, first compound 3 µM) 1.21% | viability, T/C [20] 4.75% | viability, T/C (second compound 3.16 µM, first compound 0.949 µM) 1.02% | viability, T/C (second compound 3.16 µM, first compound 3 µM) 0.26% | viability, T/C [24] 4.97% | viability, T/C (second compound 10 µM, first compound 0.949 µM) 0.49% | viability, T/C (second compound 10 µM, first compound 3 µM) 0.34%
< 9.49 nM: IC50 (second compound 0.1 µM) | IC50 (second compound 0.316 µM) | IC50 (second compound 1 µM) | IC50 (second compound 3.16 µM) | IC50 (second compound 10 µM)
inactive: viability, T/C [1] 105% | viability, T/C [2] 103% | viability, T/C [3] 124% | viability, T/C [4] 35.5% | viability, T/C [5] 44.5% | viability, T/C [6] 42.2% | viability, T/C [7] 28.9% | viability, T/C [8] 10.7% | viability, T/C [9] 29.7% | viability, T/C [10] 29.7% | viability, T/C [11] 27.1% | viability, T/C [12] 8.97% | viability, T/C [13] 21.2% | viability, T/C [14] 24% | viability, T/C [15] 19.4% | viability, T/C [17] 16.4% | viability, T/C [18] 17.2% | viability, T/C [19] 13.8% | viability, T/C [21] 16.3% | viability, T/C [22] 16.8% | viability, T/C [23] 11.7%
240 nM: IC50 (second compound 0.0316 µM)

Nc1ccccc1NC(=O)c1ccc(CNC(=O)OCc2cccnc2)cc1 + CNC(=O)c1ccc(Nc2nc(OC3CCCC3)c3c(-c4ccc5nc(C)oc5c4)c[nH]c3n2)c(OC)c1
active: viability, T/C [30] 0.6% | viability, T/C [36] 0.18% | viability, T/C [41] 5.55% | viability, T/C [42] 0.32% | viability, T/C [47] 8.05% | viability, T/C [48] 0.14% | viability, T/C [52] 6.76% | viability, T/C [53] 6.55% | viability, T/C [54] 0.19% | viability, T/C [58] 6.93% | viability, T/C [59] 6.45% | viability, T/C [60] 0.27%
2980 nM: IC50 (second compound 0.0316 µM)
inactive: viability, T/C [25] 82% | viability, T/C [26] 109% | viability, T/C [27] 109% | viability, T/C [28] 87.8% | viability, T/C [29] 48.3% | viability, T/C [31] 51% | viability, T/C [32] 47.9% | viability, T/C [33] 35% | viability, T/C [34] 24.9% | viability, T/C [35] 15.6% | viability, T/C [37] 33.1% | viability, T/C [38] 27.7% | viability, T/C [39] 16.4% | viability, T/C [40] 11.1% | viability, T/C [43] 23.7% | viability, T/C [44] 18.4% | viability, T/C [45] 14.7% | viability, T/C [46] 8.67% | viability, T/C [49] 17.5% | viability, T/C [50] 16.4% | viability, T/C [51] 10.7% | viability, T/C [55] 17.6% | viability, T/C [56] 14.9% | viability, T/C [57] 8.73%
< 31.6 nM: IC50 (second compound 0.316 µM) | IC50 (second compound 1 µM) | IC50 (second compound 3.16 µM) | IC50 (second compound 10 µM)
44.4 nM: IC50 (second compound 0.1 µM)
